Laboratory results reported in publication PMC6136660 (Steroids, 2018).

Test system: white blood cells and subsets (lymphocytes, neutrophils, eosinophils)
Assay: Differential white blood cell counts (immune suppression), MAD
Assay type: in vivo, human
Conditions: for Eosinophils: mean; for Lymphocytes / Neutrophil cell counts / White blood cells counts: mean±SEM, in 10^9/L (unit assumed)
Procedure: A single dose of pharmacological glucocorticoids results in rapid changes in peripheral blood white cell counts, with increased neutrophils, and decreased lymphocytes. Increases of neutrophils are from release from peripheral tissues, whereas loss of lymphocytes is due to induction of apoptosis. Differential white blood cell counts were studied in all Phase 1 MAD subjects. […]
placebo. White blood cells and subsets (lymphocytes, neutrophils, eosinophils) were measured at screening, day -1, pre-dose on days 1-14, day 17, and at follow-up (recovery). Day 1 (pre-dose), Day 2 (24 hr after first dose), Day 14 and follow-up (recovery) time points are graphed […]

[1] = MAD 1.0 mg/kg, Day 1 predose, baseline
[2] = MAD 1.0 mg/kg, Day 17 (3 days after last dose)
[3] = MAD 1.0 mg/kg, Day 21 follow-up
[4] = MAD 1.0 mg/kg, Day -1, baseline
[5] = MAD 1.0 mg/kg, Screening, baseline
[6] = MAD 3.0 mg/kg, Day 1 predose, baseline
[7] = MAD 3.0 mg/kg, Day 17 (3 days after last dose)
[8] = MAD 3.0 mg/kg, Day 21 follow-up
[9] = MAD 3.0 mg/kg, Day -1, baseline
[10] = MAD 3.0 mg/kg, Screening, baseline

With `C[C@@H]1C[C@H]2[C@@H]3CCC4=CC(=O)C=C[C@]4(C)C3=CC[C@]2(C)[C@@]1(O)C(=O)CO` [vamorolone] the Eosinophils [1] was 0.17 10^9/L, the Lymphocytes [1] was 1.9 ± 0.4 and the Neutrophil cell counts [1] was 2.8 ± 1.0. The “White blood cells counts” value [1] was 5.2 ± 1.0, the Eosinophils (MAD 1.0 mg/kg, Day 2 predose) was 0.17 10^9/L and the Lymphocytes (MAD 1.0 mg/kg, Day 2 predose) was 1.8 ± 0.3. For the same molecule, the Neutrophil cell counts (MAD 1.0 mg/kg, Day 2 predose) was 3.0 ± 0.9, the “White blood cells counts” value (MAD 1.0 mg/kg, Day 2 predose) was 5.3 ± 0.9 and the Eosinophils (MAD 1.0 mg/kg, Day 3 predose) was 0.17 10^9/L. For the same molecule, the Lymphocytes (MAD 1.0 mg/kg, Day 3 predose) was 2.1 ± 0.2, the Neutrophil cell counts (MAD 1.0 mg/kg, Day 3 predose) was 2.8 ± 0.8 and the “White blood cells counts” value (MAD 1.0 mg/kg, Day 3 predose) was 5.4 ± 0.8. For the same molecule, the Eosinophils (MAD 1.0 mg/kg, Day 7 predose) was 0.2 10^9/L, the Lymphocytes (MAD 1.0 mg/kg, Day 7 predose) was 2.1 ± 0.3 and the Neutrophil cell counts (MAD 1.0 mg/kg, Day 7 predose) was 3.1 ± 0.9. The “White blood cells counts” value (MAD 1.0 mg/kg, Day 7 predose) was 5.9 ± 0.7, the Eosinophils (MAD 1.0 mg/kg, Day 12 predose) was 0.2 10^9/L and the Lymphocytes (MAD 1.0 mg/kg, Day 12 predose) was 2.3 ± 0.3. The Neutrophil cell counts (MAD 1.0 mg/kg, Day 12 predose) was 3.2 ± 1.0, the “White blood cells counts” value (MAD 1.0 mg/kg, Day 12 predose) was 6.1 ± 0.9 and the Eosinophils (MAD 1.0 mg/kg, Day 14 predose) was 0.18 10^9/L. For the same molecule, the Lymphocytes (MAD 1.0 mg/kg, Day 14 predose) was 2.3 ± 0.2, the Neutrophil cell counts (MAD 1.0 mg/kg, Day 14 predose) was 3.0 ± 1.0 and the “White blood cells counts” value (MAD 1.0 mg/kg, Day 14 predose) was 5.9 ± 0.9. For the same molecule, the Eosinophils [2] was 0.17 10^9/L, the Lymphocytes [2] was 2.1 ± 0.4 and the Neutrophil cell counts [2] was 3.0 ± 0.8. For the same molecule, the “White blood cells counts” value [2] was 5.7 ± 0.6, the Eosinophils [3] was 0.15 10^9/L and the Lymphocytes [3] was 2.0 ± 0.2. For the same molecule, the Neutrophil cell counts [3] was 3.0 ± 0.6, the “White blood cells counts” value [3] was 5.5 ± 0.7 and the Eosinophils [4] was 0.18 10^9/L. For the same molecule, the Lymphocytes [4] was 2.1 ± 0.5, the Neutrophil cell counts [4] was 2.8 ± 0.9 and the “White blood cells counts” value [4] was 5.5 ± 0.8. The Eosinophils [5] was 0.13 10^9/L, the Lymphocytes [5] was 1.8 ± 0.5 and the Neutrophil cell counts [5] was 3.6 ± 2.0. For the same molecule, the “White blood cells counts” value [5] was 5.9 ± 2.2, the Eosinophils [6] was 0.23 10^9/L and the Lymphocytes [6] was 1.8 ± 0.6. The Neutrophil cell counts [6] was 3.4 ± 1.3, the “White blood cells counts” value [6] was 5.8 ± 2.0 and the Eosinophils (MAD 3.0 mg/kg, Day 2 predose) was 0.23 10^9/L. For the same molecule, the Lymphocytes (MAD 3.0 mg/kg, Day 2 predose) was 2.0 ± 0.4, the Neutrophil cell counts (MAD 3.0 mg/kg, Day 2 predose) was 3.4 ± 1.2 and the “White blood cells counts” value (MAD 3.0 mg/kg, Day 2 predose) was 5.9 ± 1.5. For the same molecule, the Eosinophils (MAD 3.0 mg/kg, Day 3 predose) was 0.2 10^9/L, the Lymphocytes (MAD 3.0 mg/kg, Day 3 predose) was 2.1 ± 0.7 and the Neutrophil cell counts (MAD 3.0 mg/kg, Day 3 predose) was 3.4 ± 1.4. For the same molecule, the “White blood cells counts” value (MAD 3.0 mg/kg, Day 3 predose) was 6.1 ± 2.2, the Eosinophils (MAD 3.0 mg/kg, Day 7 predose) was 0.18 10^9/L and the Lymphocytes (MAD 3.0 mg/kg, Day 7 predose) was 2.4 ± 0.8. The Neutrophil cell counts (MAD 3.0 mg/kg, Day 7 predose) was 3.3 ± 0.9, the “White blood cells counts” value (MAD 3.0 mg/kg, Day 7 predose) was 6.3 ± 2.0 and the Eosinophils (MAD 3.0 mg/kg, Day 12 predose) was 0.18 10^9/L. The Lymphocytes (MAD 3.0 mg/kg, Day 12 predose) was 2.1 ± 0.7, the Neutrophil cell counts (MAD 3.0 mg/kg, Day 12 predose) was 3.2 ± 1.1 and the “White blood cells counts” value (MAD 3.0 mg/kg, Day 12 predose) was 6.0 ± 2.0. The Eosinophils (MAD 3.0 mg/kg, Day 14 predose) was 0.2 10^9/L, the Lymphocytes (MAD 3.0 mg/kg, Day 14 predose) was 2.2 ± 0.6 and the Neutrophil cell counts (MAD 3.0 mg/kg, Day 14 predose) was 3.0 ± 1.1. The “White blood cells counts” value (MAD 3.0 mg/kg, Day 14 predose) was 5.8 ± 1.8, the Eosinophils [7] was 0.17 10^9/L and the Lymphocytes [7] was 2.0 ± 0.5. For the same molecule, the Neutrophil cell counts [7] was 4.0 ± 1.1, the “White blood cells counts” value [7] was 6.6 ± 1.6 and the Eosinophils [8] was 0.18 10^9/L. For the same molecule, the Lymphocytes [8] was 1.8 ± 0.6, the Neutrophil cell counts [8] was 3.9 ± 1.4 and the “White blood cells counts” value [8] was 6.3 ± 1.6. For the same molecule, the Eosinophils [9] was 0.2 10^9/L, the Lymphocytes [9] was 1.9 ± 0.6 and the Neutrophil cell counts [9] was 3.5 ± 1.4. For the same molecule, the “White blood cells counts” value [9] was 6.1 ± 1.9, the Eosinophils [10] was 0.18 10^9/L and the Lymphocytes [10] was 2.0 ± 1.0. For the same molecule, the Neutrophil cell counts [10] was 3.5 ± 1.8, the “White blood cells counts” value [10] was 6.2 ± 2.9 and the Eosinophils (MAD 9.0 mg/kg, Day 1 predose, baseline) was 0.1 10^9/L.
